Data: US10280139B2, “Cytotoxic peptides and conjugates thereof” (priority 2014, dated 2019)

Experiments:
Assay in all cases: In vitro cell killing assay of compounds of Formula (I), Cell-Titer-Glo
Assay type in all cases: cell-based
[1] = tested on: HCC1954; conditions: Homo sapiens, HCC1954, 120 h; free compound, five days incubation
Method: (§1) For evaluation of the cell killing potency of the compounds of Formula (I) in vitro, cell proliferation assays were performed in parallel with 8 cell lines: MDA-MB231 clone 16, clone 40, JimT1, HCC1954, NCl-H526, KU812, CMK11-5 cells and Jurkat cells. […] The cell proliferation assays were conducted with Cell-Titer-Glo™ (Promega) five days after cells were incubated with various concentrations of the compound (Riss et al., (2004) Assay Drug Dev Technol. 2:51-62).

[2] = tested on: JimT1; conditions: Homo sapiens, JIMT-1, 120 h; free compound, five days incubation
Method: as §1

[3] = tested on: Jurkat cells; conditions: Homo sapiens, 120 h, free compound, five days incubation
Method: as §1

[4] = tested on: KU812; conditions: Homo sapiens, KU812, 120 h; free compound, five days incubation
Method: as §1

[5] = tested on: MDA-MB231 clone 16; conditions: Homo sapiens, MDA-MB-231, 120 h; free compound, five days incubation
Method: as §1

[6] = tested on: MDA-MB231 clone 40; conditions: Homo sapiens, MDA-MB-231, 120 h; free compound, five days incubation
Method: as §1

[7] = tested on: CMK11-5 cells; conditions: Homo sapiens, CMK-11-5, 120 h; free compound, five days incubation
Method: as §1

[8] = tested on: NCI-H526; conditions: Homo sapiens, NCI-H526, 120 h; free compound, five days incubation
Method: as §1

In the case of `CC[C@H](C)[C@@H]([C@@H](CC(=O)N1CCC[C@H]1[C@H](OC)[C@@H](C)C(=O)N[C@@H](Cc1ccccc1)C(=O)OC)OC)N(C)C(=O)[C@@H](NC(=O)N(C(C)C)C(C)C)C(C)C` [FP-5, (S)-methyl-2-((2R,3R)-3-((S)-1-((3R,4S,5S)-4-((S)-2-(3,3-diisopropylureido)-N,3-dimethylbutanamido)-3-methoxy-5-methylheptanoyl)pyrrolidin-2-yl)-3-methoxy-2-methylpropanamido)-3-phenylpropanoate], the IC50 [1] is reported as 47 nM, the IC50 [2] is reported as 44.7 nM and the IC50 [3] is reported as 49.9 nM. The IC50 [4] was 106 nM, the IC50 [5] was 83.5 nM and the IC50 [6] was 139 nM. The IC50 [7] was 74.8 nM and the IC50 [8] was 204 nM.

In the case of `CC[C@H](C)[C@@H]([C@@H](CC(=O)N1CCC[C@H]1[C@H](OC)[C@@H](C)C(=O)N[C@@H](Cc1ccccc1)C(=O)O)OC)N(C)C(=O)[C@@H](/N=C(\N(C)C)N(C)CCN(C)C(=O)CCCCCN1C(=O)C=CC1=O)C(C)C` [NL-9, (S)-2-((2R,3R)-3-((S)-1-((3R,4S,7S,E)-4-((S)-sec-butyl)-9-(dimethylamino)-19-(2,5-dioxo-2,5-dihydro-1H-pyrrol-1-yl)-7-isopropyl-3-methoxy-5,10,13-trimethyl-6,14-dioxo-5,8,10,13-tetraazanonadec-8-en-1-oyl)pyrrolidin-2-yl)-3-methoxy-2-methylpropanamido)-3-phenylpropanoic acid], the IC50 [1] is reported as 2.3 nM, the IC50 [2] is reported as 14.2 nM and the IC50 [3] is reported as 6.1 nM. It also gave an IC50 [4] of 8.4 nM, an IC50 [5] of 8.1 nM and an IC50 [6] of 11.7 nM. The IC50 [7] was 10.4 nM and the IC50 [8] was 29.5 nM.

Compound `CC[C@H](C)[C@@H]([C@@H](CC(=O)N1CCC[C@H]1[C@H](OC)[C@@H](C)C(=O)N[C@@H](Cc1ccccc1)C(=O)NS(=O)(=O)CCCN=[N+]=[N-])OC)N(C)C(=O)[C@@H](N=C(N(C)C)N(C)C)C(C)C` [FP-3, (S)-2-((bis(dimethylamino)methylene)amino)-1-(((3R,4S,5S)-1-((S)-2-((1R,2R)-3-(((S)-N-1-(3-azidopropylsulfonamido)-1-oxo-3-phenylpropan-2-yl)amino)-1-methoxy-2-methyl-3-oxopropyl)pyrrolidin-1-yl)-3-methoxy-5-methyl-1-oxoheptan-4-yl)(methyl)amino)-3-methyl-1-oxobutane] has an IC50 [1] of 10.8 nM, an IC50 [2] of 42.1 nM and an IC50 [3] of 3.01 nM. It also gave an IC50 [4] of 6.78 nM, an IC50 [5] of 12.7 nM and an IC50 [6] of 23.9 nM. For the same compound, the IC50 [7] was 14.7 nM and the IC50 [8] was 22 nM.
